Measured values: US6586424B2, “Tyrosine kinase inhibitors” (Merck & Co., Inc., priority 1999, dated 2003)
Counter-ions that a name gives are not always drawn.

melting point [°C]	Compound
239 to 240	Fc1ccc(-c2cnc(Nc3ccccn3)s2)cc1 [Compound 5-20, [5-(4-Fluoro-phenyl)-thiazol-2-yl]-pyridin-2-yl-amine]
> 250	Fc1cccc(-c2cnc(Nc3ccccn3)s2)c1 [Compound 5-19, [5-(3-Fluoro-phenyl)-thiazol-2-yl]-pyridin-2-yl-amine]
> 220	Brc1ccc(Nc2ncc(-c3ccccc3)s2)nc1 (as salt: HBr) [Compound 4-4, (5-Bromo-pyridin-2-yl)-(5-phenyl-thiazol-2-yl)-amine]
195 to 203	FC(F)(F)c1ccccc1-c1cnc(Nc2ccccn2)s1 [Compound 5-14, Pyridin-2-yl[5-(2-trifluoromethyl-phenyl)-thiazol-2-yl]-amine]
> 250	FC(F)(F)c1ccc(-c2cnc(Nc3ccccn3)s2)cc1 [Compound 5-16, Pyridin-2-yl-[5-(4-trifluoromethyl-phenyl)-thiazol-2-yl]-amine]
204 to 205	Cc1cccc(-c2cnc(Nc3ccccn3)s2)c1 [Compound 5-7, Pyridin-2-yl-(5-m-tolyl-thiazol-2-yl)-amine]
231 to 232	COC(=O)c1cccc(Nc2ncc(-c3ccccc3)s2)n1 [Compound 4-6, 6-(5-Phenyl-thiazol-2-ylamino)-pyridine-2-carboxylic Acid Methyl Ester]
155 to 160	Cc1ccccc1-c1cnc(Nc2ccccn2)s1 [Compound 5-6, Pyridin-2-yl-(5-o-tolyl-thiazol-2-yl)-amine]
223.5 to 226	c1ccc(Nc2ncc(-c3cccc4ccccc34)s2)nc1 [Compound 5-9, (5-Naphthalen-1-yl-thiazol-2-yl)-pyridin-2-yl-amine]
> 250	Clc1ccc(-c2cnc(Nc3ccccn3)s2)cc1 [Compound 5-23, [5-(4-Chloro-phenyl)-thiazol-2-yl]-pyridin-2-yl-amine]
> 250	Clc1ccc(-c2cnc(Nc3ccccn3)s2)cc1Cl [Compound 5-24, [5-(3,4-dichloro-phenyl)-thiazol-2-yl]-pyridin-2-yl-amine]
242 to 244	FC(F)(F)c1cccc(-c2cnc(Nc3ccccn3)s2)c1 [Compound 5-15, Pyridin-2-yl-[5-(3-trifluoromethyl-phenyl)-thiazol-2-yl]-amine]
227 to 228	Fc1ccccc1-c1cnc(Nc2ccccn2)s1 [Compound 5-18, [5-(2-Fluoro-phenyl)-thiazol-2-yl]-pyridin-2-yl-amine]
213 to 215	Clc1ccccc1-c1cnc(Nc2ccccn2)s1 [Compound 5-21, [5-(2-Chloro-phenyl)-thiazol-2-yl]-pyridin-2-yl-amine]
113	CCc1cnc(Nc2ccccn2)s1 [Compound 4-18, (5-Ethyl-thiazol-2-yl)-pyridin-2-yl-amine]
